Converted amounts (≈) assume the structure as drawn. Like-named read-outs stand apart in the source and are kept apart here.
Columns and labels:
S. aureus F-137 = experiment: Antibacterial activity (MIC), S. aureus F-137 (β-lactamase-producing); assay type: cell-based; conditions: 10^6 cells/plate, 37° C., 20 hours
Description: (§1) According to the standard method of Japan Society of Chemotherapy [CHEMOTHERAPY, vol. 29, No. 1, pages 76-79 (1981)], a loopful of a cell suspension obtained by culturing in Mueller Hinton broth (mfd. by Difco) at 37° C. for 20 hours and adjusted to a concentration of 10^6 cells/plate (10^8 cells/ml) was inoculated into a Mueller Hinton agar medium (mfd. by Difco) containing the test compound, followed by incubation at 37° C. for 20 hours. […] In Table 1, *1 to *4 denote the following strains:
2: β-lactamase-producing S. aureus

in vivo = conditions: mouse, intravenous, ddy strain mice, solution in 0.1 N aqueous sodium hydroxide, read-out: median lethal dose (LD50)
Description: Each test compound was intravenously administered to groups of 4 ddy strain mice (body weight: 30±1 g) each, whereby its acute toxicity was investigated. In this case, the compound was administered in the form of a solution prepared by dissolving the compound in a 0.1 N aqueous sodium hydroxide solution.

S. aureus F-597 = experiment: Antibacterial activity (MIC), S. aureus F-597 (methicillin-resistant); assay type: cell-based; conditions: Mueller Hinton agar, 10^6 cells/plate, 37° C.
Description: as §1
3: methicillin-resistant S. aureus

E. coli NIHJ JC-2 = experiment: Antibacterial activity (MIC), E. coli NIHJ JC-2; assay type: cell-based, Escherichia coli
Description: (§2) According to the standard method of Japan Society of Chemotherapy [CHEMOTHERAPY, vol. 29, No. 1, pages 76-79 (1981)], a loopful of a cell suspension obtained by culturing in Mueller Hinton broth (mfd. by Difco) at 37° C. for 20 hours and adjusted to a concentration of 10^6 cells/plate (10^8 cells/ml) was inoculated into a Mueller Hinton agar medium (mfd. by Difco) containing the test compound, followed by incubation at 37° C. for 20 hours. […]

S. aureus FDA209P = experiment: Antibacterial activity (MIC), S. aureus FDA209P; assay type: cell-based, Staphylococcus aureus
Description: as §2

[1] = Staphylococcus aureus, F137, Mueller Hinton agar, read-out: MIC
[2] = Staphylococcus aureus, F597, 20 h, read-out: MIC
[3] = Escherichia coli, NIHJJC2, E. coli NIHJ JC-2, Mueller Hinton agar, 10^6 cells/plate, 37° C., 20 hours, read-out: MIC
[4] = Staphylococcus aureus, S. aureus FDA209P, Mueller Hinton agar, 10^6 cells/plate, 37° C., 20 hours, read-out: MIC

| MIC (S. aureus F-137; [1]) | MIC (S. aureus F-597; [2]) | MIC (E. coli NIHJ JC-2; [3]) | MIC (S. aureus FDA209P; [4]) | SMILES | LD50 (in vivo) | MIC (S. aureus F-597; 20 hours) | MIC (S. aureus F-137; Mueller Hinton agar) | MIC (E. coli NIHJ JC-2; E. coli NIHJ JC-2, Mueller Hinton agar, 10^6 cells/plate, 37° C., 20 hours) | MIC (S. aureus FDA209P; S. aureus FDA209P, Mueller Hinton agar, 10^6 cells/plate, 37° C., 20 hours) | MIC (E. coli NIHJ JC-2; Escherichia coli, NIHJJC2, 20 h) | MIC (S. aureus FDA209P; Staphylococcus aureus, FDA209P, 20 h) |
| --- | --- | --- | --- | --- | --- | --- | --- | --- | --- | --- | --- |
|  |  |  |  | CC1NCc2cc(-c3ccc4c(=O)c(C(=O)O)cn(C5CC5)c4c3OC(F)F)ccc21 (single isomer, unassigned; (-)) [i, (-)-1-Cyclopropyl-8-difluoromethoxy-7-(1-methyliso-indolin-5-yl)-1,4-dihydro-4-oxoquinoline-3-carboxylic acid] | ≥ 200 mg/kg | ≤ 0.05 µg/mL | ≤ 0.05 µg/mL | ≤ 0.05 µg/mL | ≤ 0.05 µg/mL |  |  |
| ≤ 0.05 µg/mL | 0.1 µg/mL (≈ 0.277 µM) | ≤ 0.05 µg/mL | ≤ 0.05 µg/mL | Cc1c(-c2ccc3c(c2)CNC3)ccc2c(=O)c(C(=O)O)cn(C3CC3)c12 [a, 1-Cyclopropyl-7-(isoindolin-5-yl)-8-methyl-1,4-dihydro-4-oxoquinoline-3-carboxylic acid] |  |  |  |  |  |  |  |
| ≤ 0.05 µg/mL | ≤ 0.05 µg/mL | ≤ 0.05 µg/mL | ≤ 0.05 µg/mL | Cc1c(-c2cc(F)c3c(c2)CNC3)ccc2c(=O)c(C(=O)O)cn(C3CC3)c12 [b, 1-Cyclopropyl-7-(7-fluoroisoindolin-5-yl)-8-methyl-1,4-dihydro-4-oxoquinoline-3-carboxylic acid] |  |  |  |  |  |  |  |
| ≤ 0.05 µg/mL | 0.1 µg/mL (≈ 0.266 µM) | ≤ 0.05 µg/mL | ≤ 0.05 µg/mL | COc1c(-c2ccc3c(c2)CNC3)ccc2c(=O)c(C(=O)O)cn(C3CC3)c12 [c, 1-Cyclopropyl-7-(isoindolin-5-yl)-8-methoxy-1,4-dihydro-4-oxoquinoline-3-carboxylic acid] |  |  |  |  |  |  |  |
| ≤ 0.05 µg/mL | ≤ 0.05 µg/mL | ≤ 0.05 µg/mL | ≤ 0.05 µg/mL | COc1c(-c2cc(F)c3c(c2)CNC3)ccc2c(=O)c(C(=O)O)cn(C3CC3)c12 [d, 1-Cyclopropyl-7-(7-fluoroisoindolin-5-yl)-8-methoxy-1,4-dihydro-4-oxoquinoline-3-carboxylic acid] |  |  |  |  |  |  |  |
| ≤ 0.05 µg/mL | ≤ 0.05 µg/mL | ≤ 0.05 µg/mL | ≤ 0.05 µg/mL | O=C(O)c1cn(C2CC2)c2c(OC(F)F)c(-c3cc(F)c4c(c3)CNC4)ccc2c1=O [f, 1-Cyclopropyl-8-difluoromethoxy-7-(7-fluoroiso-indolin-5-yl)-1,4-dihydro-4-oxoquinoline-3-carboxylic acid] |  |  |  |  |  |  |  |
|  |  |  |  | O=C(O)c1cn(C2CC2)c2cc(N3CCNCC3)c(F)cc2c1=O [j, 1-Cyclopropyl-6-fluoro-7-(1-piperazinyl)-1,4-dihydro-4-oxoquinoline-3-carboxylic acid, reference compound] |  |  |  |  |  | ≤ 0.05 µg/mL | 0.2 µg/mL (≈ 0.604 µM) |

| SMILES | MIC (S. aureus F-137; [1]) | MIC (S. aureus F-597; [2]) | MIC (E. coli NIHJ JC-2; [3]) | MIC (S. aureus FDA209P; [4]) | LD50 (in vivo) | MIC (S. aureus F-597; 20 hours) | MIC (S. aureus F-137; Mueller Hinton agar) | MIC (E. coli NIHJ JC-2; E. coli NIHJ JC-2, Mueller Hinton agar, 10^6 cells/plate, 37° C., 20 hours) | MIC (S. aureus FDA209P; S. aureus FDA209P, Mueller Hinton agar, 10^6 cells/plate, 37° C., 20 hours) | MIC (E. coli NIHJ JC-2; Escherichia coli, NIHJJC2, 20 h) | MIC (S. aureus FDA209P; Staphylococcus aureus, FDA209P, 20 h) |
| --- | --- | --- | --- | --- | --- | --- | --- | --- | --- | --- | --- |
| CC1NCc2cc(-c3ccc4c(=O)c(C(=O)O)cn(C5CC5)c4c3OC(F)F)ccc21 (racemic) [g, (±)-1-Cyclopropyl-8-difluoromethoxy-7-(1-methyliso-indolin-5-yl)-1,4-dihydro-4-oxoquinoline-3-carboxylic acid] | ≤ 0.05 µg/mL | 0.1 µg/mL (≈ 0.235 µM) | ≤ 0.05 µg/mL | ≤ 0.05 µg/mL | ≥ 200 mg/kg |  |  |  |  |  |  |
| CC1NCc2cc(-c3ccc4c(=O)c(C(=O)O)cn(C5CC5)c4c3OC(F)F)ccc21 (single isomer, unassigned; (+)) [h, (+)-1-Cyclopropyl-8-difluoromethoxy-7-(1-methyliso-indolin-5-yl)-1,4-dihydro-4-oxoquinoline-3-carboxylic acid] | ≤ 0.05 µg/mL |  | ≤ 0.05 µg/mL | ≤ 0.05 µg/mL |  | 0.2 µg/mL (≈ 0.469 µM) |  |  |  |  |  |
| O=C(O)c1cn(C2CC2)c2c(OC(F)F)c(-c3ccc4c(c3)CNC4)ccc2c1=O [e, 1-Cyclopropyl-8-difluoromethoxy-7-(isoindolin-5-yl)-1,4-dihydro-4-oxoquinoline-3-carboxylic acid] | ≤ 0.05 µg/mL | 0.1 µg/mL (≈ 0.242 µM) | ≤ 0.05 µg/mL | ≤ 0.05 µg/mL | ≥ 200 mg/kg |  |  |  |  |  |  |

— patent US6025370A, “Quinolonecarboxylic acid derivatives or salts thereof” (Toyama Chemical Co., Ltd., priority 1996, dated 2000)
